Like-named read-outs stand apart in the source and are kept apart here.
Columns and labels:
[1] = test system: HepG2 cells; experiment: Subcellular localization by CLSM; type: cell-based; settings: 1 μM CPT, 4 h
Experimental: HepG2 and L02 cells were seeded on cover glasses embedded in 24-well culture plates at densities of 5 × 10^4 cells/well. After 24 h, conjugates were added at a 1 μM CPT concentration and co-incubated with the cells for 4 h at 37 °C. Then, after the conjugate solutions were removed, the cells were treated with 50 nM MitoTracker deep red for 30 min and 10 mM Basic Orange 14 for 10 min to stain mitochondria and nuclei, respectively (Paleos et al., [2016]). Then, the cells were fixed with 4% paraformaldehyde, washed three times with ice-cold PBS (pH 7.4), and visualized using CLSM.

[2] = test system: HepG2 cells; experiment: Cell-cycle analysis by flow cytometry (PI); type: cell-based; settings: 1 μM CPT, 24 h, control cells 21.30%
Experimental: The cell-cycle percentage of HepG2 was analyzed using flow cytometer. […] After 24 h, the cells were trypsinized, washed with PBS, and fixed with 4 °C pre-cooling 70% ethanol overnight at −20 °C. […] Finally, the cells were stained with propidium iodide (PI) solution for 20 min and determined by flow cytometer.

[3] = test system: HepG2 cells; experiment: Apoptosis assay, Annexin V-FITC/PI double staining; type: cell-based; settings: 1 μM CPT, 24 h
Experimental: The apoptosis induction effect of conjugates on HepG2 cells was detected by Annexin V-FITC/PI double staining method. […] After 24 h, the cells were trypsinized (without EDTA), washed with PBS (containing 2% BSA), stained by 5 μL of Annexin V-FITC and 5 μL of 100 μg/mL PI, and re-suspended in 500 μL of binding buffer. After 15 min incubation, cells were determined by flow cytometer.

[4] = Pharmacokinetic study after intravenous administration; type: in vivo; settings: rats; for maximum plasma drug concentration: 1.5 mg/kg CPT i.v., 5 min post administration
Experimental: The rats were fasted for 12 h with free access to water before the experiment. Briefly, 0.5 ml of blood was collected in centrifuge tubes at predefined times of 0.083, 0.33, 0.5, 1, 2, 4, 8, 12, and 24 h. Blood samples were centrifuged at 15,000 rpm for 15 min at 4 °C to isolate plasma fractions. Then, 100 μL of methanol was added to the plasma, and the mixture was extracted with 2 mL hexane and 1 mL dichloromethane. The mixture was vortexed for 10 min and centrifuged at 15,000 rpm for 15 min, and the supernatant was collected and dried using a stream of nitrogen gas. The resultant residue was redissolved in 200 μL methanol and stored at −20 °C until further analysis.

[5] = test system: H22 tumor-bearing mice; experiment: Toxicity in the efficacy study (body weight, H&E staining); type: in vivo; settings: for H&E histology of liver and spleen: 1 mg/kg CPT i.v., day 12
Experimental: (§1) The tumor-bearing mice were randomly divided into five groups (10 per group). The control group mice were administered saline. […] Body weights were recorded daily. At day 12, four mice of each group were sacrificed by carbon dioxide asphyxiation. Tumors, livers and spleens were collected and fixed with 10% paraformaldehyde for 48 h. These tissues were cut into […] sections and processed for H&E staining. The remaining […] in each group were also sacrificed, and the tumors were collected and weighed.

[6] = test system: HepG2 MCTS; experiment: Uptake in multicellular tumor spheroids (MCTS), CLSM; type: cell-based; settings: 1 μM, 8 h, 100 µm depth
Experimental: Besides that, a multicellular tumor spheroids (MCTS) model, which was more suitable for mimicking the tumor microenvionment, was also employed as a supplement to monolayer cell model for better estimating in vitro targeting efficacy (Kunz-Schughart, [1999]). MCTS model was established by the liquid overlay method as described before (Friedrich et al., [2008]). Briefly, HepG2 cells were seeded in 96-well plates coated with 2% agarose at 2 × 10^3 cells per well and incubated for 5 d. […] Thereafter, MCTS were collected by centrifugation, washed with PBS, and observed by confocal laser scanning microscope (CLSM) (Olympus FV1000, Tokyo, Japan) at 100 µm depth of the MCTS (about the middle section of the sphere).

[7] = test system: H22 tumor-bearing mice
Experimental: (§2) An H22 tumor-bearing mice model was established based on previously reported method (Li et al., [2014]). Ascitic fluid containing H22 cells was extracted and diluted with PBS (pH 7.0) to 1 × 10^7 cells/ml. The mice (20–22 g) were anesthetized with 5% chloral hydrate and subcutaneously injected with 0.2 ml of cell suspension for armpit tumor implantation. All animal studies were approved by the China Animal Care and Use Committee and carried out according to the Guide for the Care and Use of Laboratory Animals of Beijing University of Chinese Medicine.
as §1

[8] = test system: HepG2 cells (GLUT1-overexpressing); settings: 1 μM CPT, flow cytometry
Experimental: HepG2 and L02 cells were seeded into 96-well culture plates at a density of 1.2 × 10^4 cells/well and incubated for 24 h. After the confluency and morphology were checked, 1 μM conjugates (calculated from CPT) were added to each well and co-incubated with the cells for different times (1, 4, and 8 h). […] The D-GLU was a substrate as well as inhibitor of GLUT1. Then, the GPCC conjugate was co-incubated with the cells for 4 h. At the end of the incubation time, the conjugate solutions were withdrawn from the wells, and the cells were washed three times with cold PBS. After fixation with 4% paraformaldehyde, the cells were qualitatively analyzed by fluorescence microscopy (IX71, Olympus, Tokyo, Japan). After trypsinization and re-suspension of the cells in PBS (pH 7.4), the fluorescence intensity was quantitatively analyzed by flow cytometry (BD FACSAria III, Piscataway, NJ).

[9] = Particle size by dynamic light scattering (DLS); type: physicochemical; settings: conjugates at 10 mg/ml
Experimental: The particle sizes and zeta potential of different conjugates at 10 mg/ml were determined using a dynamic light scattering (DLS) particle size analyzer (Nicomp 380 Zeta Potential/Particle Sizer, Santa Barbara, CA). Following staining with 2% sodium phosphotungstate solution, the conjugate morphologies were observed using transmission electron microscopy (TEM) at an accelerating voltage of 100 kV (JEM 1400 JOEL, Akishima City, Tokyo Prefecture, Japan).

[10] = In vitro CPT release by dialysis in PBS with GSH; type: physicochemical; settings: compared with MPCC and GPCC
Experimental: A dialysis method was used to determine the in vitro CPT release of conjugates. Conjugates at concentrations of 1 mg/ml were placed in dialysis bags (MWCO 3500 Da) and immersed in 50 ml PBS (pH 7.4) containing different concentrations of GSH (0 μM, 10 μM and 10 mM) to mimic various cellular microenvironment conditions. The drug release was conducted at 100 rpm and 37 °C. During dialysis, 1 ml aliquots were withdrawn from the release medium at predefined intervals, and 1 ml of fresh release medium was added to maintain a constant total volume. The CPT concentrations were determined by HPLC.

[11] = test system: H22 tumor-bearing mice; experiment: In vivo and ex vivo imaging of tumor targeting; settings: in vivo imaging, 1 mg/kg CPT i.v.
Experimental: as §2
Mice were intravenously injected with conjugates at 1 mg/kg CPT concentration. […] Afterward, the tumor-bearing mice were immediately sacrificed by carbon dioxide asphyxiation. Subsequently, major organs (such as tumor, liver, spleen, brain, heart, kidney, and lung) were harvested and visualized.

[12] = test system: L02 cells; experiment: MTT cytotoxicity; type: cell-based; settings: 24 h
Experimental: The cytotoxicity of different conjugates on HepG2 and L02 cells was determined using 3-(4,5-dimethyl-2-thiazolyl)-2,5-diphenyl-2-H-tetrazolium bromide (MTT) method. The cells were seeded in 96-well culture plates at a density of 5 × 10^3 cells/well. Then the cells were treated with conjugates and free CPT at CPT concentrations ranging from 3 nM to 20 μM at 37 °C for 24 h when 60–70% confluence was reached. After that, the drug solution was replaced with MTT at a concentration of 5 mg/mL, and co-incubated with cells for another 4 h. The supernatant was discarded and adding with 150 μL DMSO to dissolve the MTT-formazan. The absorbance at 492 nm was recorded using a microplate reader.

[13] = rat, plasma, iv, 1.5 mg/kg, 1.5 mg CPT/kg i.v., two-compartment model
[14] = 1.5 mg CPT/kg i.v., two-compartment model

Row | Compound | subcellular localization [1] | S phase percentage [2] [%] | apoptosis induction effect [3] | maximum plasma drug concentration [4] [µg/mL] | H&E histology of liver and spleen [5] | cellular uptake in MCTS [6] | particle size (DLS) [9] [nm] | AUC(0–t) [4, 14] [ng·h/mL] | AUC(0–∞) [4, 14] [ng·h/mL] | CL [4, 14] [mL/min/kg] | Cmax [4, 14] [ng/mL] | MRT(0–t) [4, 14] [h] | MRT(0–∞) [4, 14] [h] | V (apparent volume of distribution) [4, 14] [L/kg] | t1/2 [4, 14] [h] | also measured
1 | CC[C@@]1(O)C(=O)OCc2c1cc1n(c2=O)Cc2cc3ccccc3nc2-1 [CPT, camptothecin] | hardly observed in the cells | 27.49 | highest apoptosis induction effect | 0.92 | significant hepatotoxicity and spleen toxicity |  |  |  |  |  |  |  |  |  |  | AUC(0-inf) [4, 13]: 753 ± 92 ng·h/mL; AUC(0-t) [4, 13]: 748 ± 92 ng·h/mL; Tmax [4, 13]: 1.98 min; clearance [4, 13]: 33.6 mL/min/kg; half-life [4, 13]: 9.9 ± 8.04 min; Cmax ([4]; rat, plasma, iv, 1.5 mg/kg, 1.5 mg CPT/kg i.v., two-compartment model, read-out: Cmax): 917 ± 50 ng/mL; MRT last ([4]; rat, plasma, iv, 1.5 mg/kg, 1.5 mg CPT/kg i.v., two-compartment model, read-out: MRT(0–t)): 2.4 ± 0.288 h; MRT inf ([4]; rat, plasma, iv, 1.5 mg/kg, 1.5 mg CPT/kg i.v., two-compartment model, read-out: MRT(0–∞)): 2.59 ± 0.291 h; Vd ([4]; rat, plasma, iv, 1.5 mg/kg, 1.5 mg CPT/kg i.v., two-compartment model, read-out: V (apparent volume of distribution)): 10.6 ± 1.18 L/kg; body weight change ([5]; 1 mg/kg CPT i.v. on days 0, 2, 4, 6, 8, 10): smallest increase
2 | Glucose–PEG–PAMAM-s-s–Camptothecin-Cy7 [GPCC] | accumulated in HepG2 nuclei more than the MPCC conjugate | 37.15 | increased obviously |  |  | obviously stronger cellular uptake than the MPCC conjugate |  |  |  |  |  |  |  |  |  | tumor inhibition ([7]; 1 mg/kg CPT i.v. on days 0, 2, 4, 6, 8, 10, versus CPT suspension and other conjugate groups, p < .05): significantly better tumor inhibition rates; H&E histology of tumor tissue ([7]; 1 mg/kg CPT i.v., day 12): widespread necrosis in tumor tissues; tumor weight ([7]; 1 mg/kg CPT i.v., end of experiment, p < .05): significantly less than that of the MPCC conjugate; cellular uptake relative to MPCC [8]: approximately two-fold
3 | PAMAM–CPT–Cy7 [PCC] | accumulated in the nuclei of the HepG2 cells | 34.7 |  | 2.53 | significant hepatotoxicity and spleen toxicity | obviously stronger cellular uptake than the MPCC conjugate | 17.6 | 3594 ± 665 | 4038 ± 505 | 6.27 ± 0.767 | 2530 ± 330 | 5.042 ± 0.225 | 9.566 ± 6.991 | 5.104 ± 3.531 | 0.398 ± 0.045 | CPT release rate [10]: slightly increased release rate; fluorescence in tumor sites [11]: slight fluorescence
4 | mPEG–PAMAM–CPT–Cy7 [MPCC] |  | 32.94 |  | 3.81 |  |  | 19.6 | 4677 ± 654 | 4895 ± 620 | 5.17 ± 0.617 | 3807 ± 144 | 4.341 ± 0.9 | 5.81 ± 1.141 | 3.207 ± 1.638 | 0.258 ± 0.027 | cytotoxicity [12]: lower than that of PCC; time of maximum distribution at tumor sites [11]: 4 h
